# Experimental data: US20130237478A1, “COMPOSITIONS AND METHODS FOR TREATMENT OF PERIPHERAL VASCULAR DISEASE” (TARIX PHARMACEUTICALS LTD., priority 2012, published 2013)
# Assays:
# [1] = Body weight of mice in hind limb ischemia studies; type: in vivo, Balb/c mice; conditions: Example 1; 500 μg/kg SC daily; throughout the study (49 days)
# Protocol: Body weight of animals was measured before the surgery and once weekly thereafter.
# The model and procedures used for this example is the same as for those in Examples 1 and 2, unless otherwise specified.
# [2] = tested on: Transient middle cerebral artery occlusion (tMCAO); assay: Stepping test (forelimb akinesia) after tMCAO stroke; type: in vivo, rats
# Protocol: (§1) For the purposes of this example, Transient middle cerebral artery occlusion (tMCAO) procedure Day is defined as “Day 1” in this study. On the day of surgery anesthesia were induced with 4% isoflurane in a mixture of 70% N2O and 30% O2 and maintained with 1.5-2% isoflurane.
# The tMCAO procedures were performed according to the method described R. Schmid-Elsaesser et al. Briefly, the right CCA (Common Carotid Artery) was exposed through a midline neck incision and carefully dissected free from surrounding nerves and fascia—from its bifurcation to the base of the skull. The occipital artery branches of the ECA (External Carotid Artery) were then isolated, and these branches were dissected and coagulated. The ECA was dissected further distally and coagulated along with the terminal lingual and maxillary artery branches, which was then divided. The ICA (Internal Carotid Artery) was isolated and carefully separated from the adjacent vagus nerve, and the pterygopalatine artery was ligated close to its origin with a 5-0 nylon suture (SMI, Belgium). Next, a 4-0 silk suture was tied loosely around the mobilized ECA stump, and a 4 cm length of 4-0 monofilament nylon suture (the tip of the suture was blunted by using a flame, and the suture was coated with polylysine, prior to insertion) was inserted through the proximal ECA into the ICA and thence into the circle of Willis, effectively occluding the MCA. The surgical wound was closed and the animals were returned to their cages to recover from anesthesia. […]
# Animals were tested for forelimb akinesia in a stepping test (ST). The animal was held with its hind limbs fixed with one hand and the forelimb not to be monitored with the other, while the unrestrained fore-paw touches the table. The number of adjusting steps are counted while the animal is moved sideways along the table surface (85 cm in approximately five seconds), in the forehand & backhand direction for both forelimbs. […]
# [3] = tested on: Transient middle cerebral artery occlusion (tMCAO); assay: Forelimb placement test after tMCAO stroke; type: in vivo, rats; conditions: 50 μg/kg by Alzet pump; particularly on Days 21 and 35
# Protocol: as §1
# The tMCAO procedures were performed according to the method described R. Schmid-Elsaesser et al. Briefly, the right CCA (Common Carotid Artery) was exposed through a midline neck incision and carefully dissected free from surrounding nerves and fascia—from its bifurcation to the base of the skull. The occipital artery branches of the ECA (External Carotid Artery) were then isolated, and these branches were dissected and coagulated. The ECA was dissected further distally and coagulated along with the terminal lingual and maxillary artery branches, which was then divided. The ICA (Internal Carotid Artery) was isolated and carefully separated from the adjacent vagus nerve, and the pterygopalatine artery was ligated close to its origin with a 5-0 nylon suture (SMI, Belgium). […]
# For the forelimb-placing test, the rat was held close to a tabletop and the rat's ability to place the forelimb on the tabletop in response to whisker, visual, tactile, or proprioceptive stimulation was scored (0=normal, 12=maximally impaired). […]
# [4] = tested on: Transient middle cerebral artery occlusion (tMCAO); assay: Body swing test after tMCAO stroke; type: in vivo, rats; conditions: 50 μg/kg by Alzet pump
# Protocol: as §1
# The tMCAO procedures were performed according to the method described R. Schmid-Elsaesser et al. Briefly, the right CCA (Common Carotid Artery) was exposed through a midline neck incision and carefully dissected free from surrounding nerves and fascia—from its bifurcation to the base of the skull. The occipital artery branches of the ECA (External Carotid Artery) were then isolated, and these branches were dissected and coagulated. The ECA was dissected further distally and coagulated along with the terminal lingual and maxillary artery branches, which was then divided. The ICA (Internal Carotid Artery) was isolated and carefully separated from the adjacent vagus nerve, and the pterygopalatine artery was ligated close to its origin with a 5-0 nylon suture (SMI, Belgium). Next, a 4-0 silk suture was tied loosely around the mobilized ECA stump, and a 4 cm length of 4-0 monofilament nylon suture (the tip of the suture was blunted by using a flame, and the suture was coated with polylysine, prior to insertion) was inserted through the proximal ECA into the ICA and thence into the circle of Willis, effectively occluding the MCA. The surgical wound was closed and the animals were returned to their cages to recover from anesthesia. One hour and a half after occlusion rats were re-anesthetized, the monofilament was withdrawn to allow reperfusion, the surgical wound was closed and rats were returned to their cages.
# Animals were subjected to a modified Modified Neurological Rating Scale (mNRS) at 24 hours post reperfusion. Only animals with an overall score of ≧10 were included in this study. Animals were allocated into the test groups, according to the mNRS results on day 2, in order to have similar distribution of rats performance between groups. Starting on day 2, 24 hours post-surgery, animals in groups 4, 5 and 7 were implanted subcutaneously with an osmotic Alzet pump and treated with either 500 μg/kg TXA127, 500 μg/kg PanCyte, or 50 μg/kg Linear PanCyte. Animals in groups 2, 3 and 6 received 500 μg/kg or 1,000 μg/kg TXA127 or 500 μg/kg PanCyte, administered subcutaneously via daily injection. Animals in group 1 were treated with a daily subcutaneous injection of a PBS (vehicle).
# Each rat was held approximately one inch from the base of its tail. It was then elevated to an inch above a surface of a table. The rat was held in the vertical axis, defined as no more than 10° to either the left or the right side. A swing was recorded whenever the rat moves its head out of the vertical axis to either side. Before attempting another swing, the rat must return to the vertical position for the next swing to be counted. Twenty (20) total swings were counted. A normal rat typically has an equal number of swings to either side. Following focal ischemia, the rat tends to swing to the contralateral side (left side in this case). Body swing scores are expressed as a percentage of […] over total swings.
# [5] = tested on: Transient middle cerebral artery occlusion (tMCAO); assay: tMCAO stroke model, overall comparison of results; type: in vivo, rats; conditions: Linear PanCyte dose at least ten times lower than PanCyte
# Text: Without wishing to be held to a particular theory, it is possible that angiotensin-(1-7) peptides or functional equivalents, analogs or derivatives, and/or angiotensin-(1-7) receptor agonists such as TXA127, PanCyte and Linear PanCyte act to stimulate blood flow and tissue repair through angiogenesis. Such a mode of action would be extremely beneficial in a critical limb ischemia scenario since these conditions have deprivation of blood supply as a major source of pathology.
# as §1
# The tMCAO procedures were performed according to the method described R. Schmid-Elsaesser et al. Briefly, the right CCA (Common Carotid Artery) was exposed through a midline neck incision and carefully dissected free from surrounding nerves and fascia—from its bifurcation to the base of the skull. The occipital artery branches of the ECA (External Carotid Artery) were then isolated, and these branches were dissected and coagulated. The ECA was dissected further distally and coagulated along with the terminal lingual and maxillary artery branches, which was then divided. […]
Compound,body weight vs vehicle [1],stepping test results compared with TXA127 or PanCyte ([2]; 50 μg/kg by Alzet pump),"stepping test performance vs vehicle ([2]; all experimental conditions (Table 22), by Day 28 post-surgery)",forelimb placement performance compared with other groups [3],body swing performance ([4]; by Day 21),body swing performance vs vehicle ([4]; by Day 28),results in stroke model compared with PanCyte [5]
"CC[C@H](C)[C@H](NC(=O)[C@H](Cc1ccc(O)cc1)NC(=O)[C@@H](NC(=O)[C@H](CCCNC(=N)N)NC(=O)[C@@H](N)CC(=O)O)C(C)C)C(=O)N[C@@H](Cc1c[nH]cn1)C(=O)N1CCC[C@H]1C(=O)O [TXA127, Asp^1-Arg^2-Val^3-Tyr^4-Ile^5-His^6-Pro^7 (SEQ ID NO: 1)]",no statistically significant differences,,,,,,
Asp^1-Arg^2-Val^3-Ser^4-Ile^5-His^6-Cys^7 (SEQ ID NO:5) (DRVSIHC) [Linear PanCyte],,substantially equivalent to ten times as much TXA127 or PanCyte,significantly improved the performance,best performance,showed improvement,significant improvement in performance,at least as impressive as PanCyte and in many cases even more impressive results
